Reference: patent US20100035932A1, “NOVEL FORMYL PEPTIDE RECEPTOR LIKE 1 AGONISTS THAT INDUCE MACROPHAGE TUMOR NECROSIS FACTOR ALPHA AND COMPUTATIONAL STRUCTURE-ACTIVITY RELATIONSHIP ANALYSIS OF THEREOF” (priority 2008, published 2010)
Like-named read-outs stand apart in the source and are kept apart here.

Columns and labels:
J774.A1 macrophages = test: TNF-α production in J774.A1 macrophages (ELISA); assay type: cell-based, murine; settings: for fold induction at 50 µM: Mus musculus, J774.A1, 24 h; for Determined class of macrophage TNF-α inducing activity: experimentally determined class
human neutrophils = test: Ca2+ mobilization in human neutrophils (FLIPR Calcium 3); settings: Neutrophil, read-out: [Ca2+]i EC50
[1] = relative fold of activation compared to vehicle (DMSO) control for 50 μM compound, N.A. = no activity was observed, read-out: TNF-α production
[2] = 50 μM compound, above response to vehicle (DMSO) control, Table 5 numbering, N.A. = inactive, read-out: FI (fold-increase of macrophage TNF-α production)

Compound | Determined class of macrophage TNF-α inducing activity (J774.A1 macrophages) | further results
O=C(N/N=C/c1cc(Br)cc(Br)c1OC(=O)c1ccccc1)c1ccc2c(c1)OCO2 [Compound 12] |  | fold induction at 50 µM (J774.A1 macrophages; [1]): < 5
CCOc1cc(/C=N\NC(=O)c2ccc3c(c2)OCO3)ccc1OC(=O)c1ccc(Br)cc1 [Compound 11] |  | fold induction at 50 µM (J774.A1 macrophages; [1]): < 5
CCOc1ncccc1C(=O)N/N=C/c1ccc([N+](=O)[O-])o1 [Compound 80] | NA (inactive derivatives were placed in the nonactive group labeled “NA”) | 
CCc1ccc(C(=O)N/N=C/c2ccc(-c3ccc(C)c(Cl)c3)o2)nc1 [Compound 85] | NA (inactive derivatives were placed in the nonactive group labeled “NA”) | 
COc1ccc(/C(C)=N/NC(=O)c2ccc3c(c2)OCCO3)cc1[N+](=O)[O-] [Compound 78] | NA (inactive derivatives were placed in the nonactive group labeled “NA”) | 
Nc1ccc(C(=O)N/N=C/c2ccc(-c3ccc([N+](=O)[O-])cc3Cl)o2)cc1 [Compound 22] |  | fold induction at 50 µM (J774.A1 macrophages; [1]): < 2
O=C(N/N=C/c1cc(Br)cc(I)c1O)c1ccc2c(c1)OCCO2 [Compound 62] | NA (inactive derivatives were placed in the nonactive group labeled “NA”) | 
O=C(N/N=C/c1cc(Br)cc(I)c1O)c1ccc2c(c1)OCCO2 [Compound 27] |  | EC50 (human neutrophils): 8 µM
O=C(N/N=C/c1cc(/N=N\c2cccc(C(F)(F)F)c2)ccc1O)c1ccc2c(c1)OCO2 [Compound 28] |  | EC50 (human neutrophils): 8.5 µM
O=C(/C=C/c1ccco1)Oc1cccc(/C=N/NC(=O)c2ccc3c(c2)OCO3)c1 [Compound 31] |  | EC50 (human neutrophils): 12.4 µM
O=C(N/N=C/c1ccc(-c2ccc(Cl)cc2Cl)o1)c1ccc2c(c1)OCO2 [Compound 24] |  | fold induction at 50 µM (J774.A1 macrophages; [1]): < 2
O=C(N/N=C1\C(=O)N(Cc2cccc3ccccc23)c2ccccc21)c1ccc2c(c1)OCO2 [Compound 64] | NA (inactive derivatives were placed in the nonactive group labeled “NA”) | 
O=C(N/N=C/c1cc(/N=N\c2cccc(C(F)(F)F)c2)ccc1O)c1ccc2c(c1)OCO2 [Compound 63] | NA (inactive derivatives were placed in the nonactive group labeled “NA”) | 
O=C(N/N=C/c1cc(Br)c(Br)o1)c1ccc2c(c1)OCO2 [Compound 16] |  | fold induction at 50 µM (J774.A1 macrophages; [1]): < 5
O=C(N/N=C/c1ccc(-c2ccccc2Cl)o1)c1ccc(Cl)cc1Cl [Compound 14] |  | fold induction at 50 µM (J774.A1 macrophages; [1]): < 5
O=C(N/N=C/c1ccc(-c2ccc(Cl)c([N+](=O)[O-])c2)o1)c1ccc2c(c1)OCO2 [Compound 82] | NA (inactive derivatives were placed in the nonactive group labeled “NA”) | 
CC(C)N1C(=O)/C(=N\NC(=O)c2ccc3c(c2)OCO3)c2ccccc21 [Compound 76] | NA (inactive derivatives were placed in the nonactive group labeled “NA”) | 
C/C(=N\NC(=O)c1ccc2c(c1)OCO2)c1cccc([N+](=O)[O-])c1 [Compound 75] | NA (inactive derivatives were placed in the nonactive group labeled “NA”) | 
O=C(N/N=C/c1ccc(-c2ccc(Cl)c(Cl)c2)o1)c1ccc2c(c1)OCO2 [Compound 55] | Active | fold induction at 50 µM (J774.A1 macrophages; [2]): < 5

Compound | Determined class of macrophage TNF-α inducing activity (J774.A1 macrophages) | further results
CCOc1cc(/C=N\NC(=O)c2ccc3c(c2)OCO3)ccc1OC(=O)c1ccc(Br)cc1 [Compound 56] | Active | fold induction at 50 µM (J774.A1 macrophages; [2]): < 5
COc1cc(/C=N\NC(=O)c2ccc3c(c2)OCO3)ccc1OCc1ccccc1 [Compound 54] | Active | fold induction at 50 µM (J774.A1 macrophages; [2]): 7
O=C(N/N=C/c1ccc(-c2cccc(Br)c2)o1)c1ccccn1 [Compound 86] | NA (inactive derivatives were placed in the nonactive group labeled “NA”) | 
Cc1ccc(C(=O)N/N=C/c2ccc(C)o2)cc1 [Compound 36] |  | EC50 (human neutrophils): 25.5 µM
4-fluoro-benzoic acid [5-(3-trifluoromethyl-phenyl)-2-furyl]methylene-hydrazide [Compound 2] | Active | FI (fold-increase of macrophage TNF-α production) (J774.A1 macrophages; 50 μM compound, above response to vehicle (DMSO) control, Table 5 numbering, N.A. = inactive): 60 fold-increase
O=C(N/N=C/c1cc(/N=N\c2cccc3ccccc23)ccc1O)c1ccc2c(c1)OCO2 [Compound 74] | NA (inactive derivatives were placed in the nonactive group labeled “NA”) | 
O=C(N/N=C/c1c(O)ccc2ccccc12)c1ccc2c(c1)OCO2 [Compound 68] | NA (inactive derivatives were placed in the nonactive group labeled “NA”) | 
CN(C)c1ccc(/C=N\NC(=O)c2cccc(F)c2)cc1 [Compound 66] | NA (inactive derivatives were placed in the nonactive group labeled “NA”) | 
CN(C)c1ccc(/C=N\NC(=O)c2ccccc2O)cc1 [Compound 73] | NA (inactive derivatives were placed in the nonactive group labeled “NA”) | 
CSCC[C@H](NC=O)C(=O)N[C@@H](CC(C)C)C(=O)N[C@@H](Cc1ccccc1)C(=O)O [fMLF, N-formyl-Met-Leu-Phe, reference compound] |  | TNF-α production by peptide agonists (J774.A1 macrophages; 50 μM, 24 hr): failed to induce macrophage TNF-α production
COc1cc(/C=N\NC(=O)c2ccc3c(c2)OCO3)ccc1OC(=O)c1ccco1 [Compound 70] | NA (inactive derivatives were placed in the nonactive group labeled “NA”) | 
O=C(N/N=C/c1c(O)ccc2ccccc12)c1ccc2c(c1)OCO2 [Compound 37] |  | EC50 (human neutrophils): 26.8 µM
COc1cc(/C=N\NC(=O)c2cccc(C)c2O)ccc1OCc1ccccc1 [Compound 60] | NA (inactive derivatives were placed in the nonactive group labeled “NA”) | 
COc1cc(/C=N\NC(=O)c2cccc(C)c2O)ccc1OCc1ccccc1 [Compound 25] |  | EC50 (human neutrophils): 0.74 µM
O=C(N/N=C/c1cc(Br)c(Br)o1)c1ccc2c(c1)OCCO2 [Compound 65] | NA (inactive derivatives were placed in the nonactive group labeled “NA”) | 
Cc1ccc(-c2ccc(/C=N/NC(=O)c3ccncc3)o2)cc1Cl [Compound 51] | Active | fold induction at 50 µM (J774.A1 macrophages; [2]): 50
O=C(N/N=C/c1ccc(-c2ccc(Cl)cc2)o1)c1ccncc1 [Compound 83] | NA (inactive derivatives were placed in the nonactive group labeled “NA”) | 
O=C(N/N=C/c1ccco1)c1cccnc1 [Compound 81] | NA (inactive derivatives were placed in the nonactive group labeled “NA”) | 
COc1ccc(Cl)cc1/C=N/NC(=O)c1ccc2c(c1)OCCO2 [Compound 79] | NA (inactive derivatives were placed in the nonactive group labeled “NA”) | 

Compound | Determined class of macrophage TNF-α inducing activity (J774.A1 macrophages) | further results
O=C(N/N=C/c1ccc([N+](=O)[O-])o1)c1cccc([N+](=O)[O-])c1 [Compound 23] |  | fold induction at 50 µM (J774.A1 macrophages; read-out: TNF-α production): < 2
CCN1C(=O)/C(=N\NC(=O)c2ccc3c(c2)OCO3)c2ccccc21 [Compound 77] | NA (inactive derivatives were placed in the nonactive group labeled “NA”) | 
O=C(N/N=C/c1cc(Br)c(Br)o1)c1ccc2c(c1)OCO2 [Compound 58] | Active | fold induction at 50 µM (J774.A1 macrophages; [2]): < 5
COc1ccc(C(=O)N/N=C\c2ccc(N(C)C)cc2)cc1 [Compound 26] |  | EC50 (human neutrophils): 3 µM
COc1ccc(/C=N/NC(=O)c2ccc3c(c2)OCO3)c(OC)c1 [Compound 69] | NA (inactive derivatives were placed in the nonactive group labeled “NA”) | 
O=C(N/N=C/c1ccc(-c2cccc(C(F)(F)F)c2)o1)c1cccc([N+](=O)[O-])c1 [Compound 13] |  | fold induction at 50 µM (J774.A1 macrophages; [1]): < 5
O=C(N/N=C/c1ccc(-c2ccc(O)c(C(=O)O)c2)o1)c1cccnc1 [Compound 32] |  | EC50 (human neutrophils): 12.5 µM
O=C(N/N=C/c1cc(Br)c(Br)o1)c1ccc2c(c1)OCCO2 [Compound 30] |  | EC50 (human neutrophils): 9.8 µM
CN(C)c1ccc(/C=N\NC(=O)c2cccc(F)c2)cc1 [Compound 33] |  | EC50 (human neutrophils): 13.1 µM
O=C(N/N=C/c1ccc(-c2cccc(C(F)(F)F)c2)o1)c1cc(I)ccc1Cl [Compound 15] |  | fold induction at 50 µM (J774.A1 macrophages; [1]): < 5
O=C(N/N=C/c1ccc(-c2ccc(Cl)c(Cl)c2)o1)c1ccncc1 [Compound 84] | NA (inactive derivatives were placed in the nonactive group labeled “NA”) | 
O=C(N/N=C/c1ccc(-c2cccc(C(F)(F)F)c2)o1)c1ccc(Br)cc1 [Compound 52] | Active | fold induction at 50 µM (J774.A1 macrophages; [2]): 35
O=C(O)COc1ccccc1/C=N/NC(=O)c1ccc2c(c1)OCO2 [Compound 72] | NA (inactive derivatives were placed in the nonactive group labeled “NA”) | 
CN(C)c1ccc(/C=N\NC(=O)c2ccc([N+](=O)[O-])cc2)cc1 [Compound 53] | Active | fold induction at 50 µM (J774.A1 macrophages; [2]): 25
CN(C)c1ccc(/C=N/NC(=O)c2ccc3c(c2)OCO3)cc1 [Compound 67] | NA (inactive derivatives were placed in the nonactive group labeled “NA”) | 
O=C(/C=C/c1ccco1)Oc1cccc(/C=N/NC(=O)c2ccc3c(c2)OCO3)c1 [Compound 59] | NA (inactive derivatives were placed in the nonactive group labeled “NA”) | 
COc1ccc(C(=O)N/N=C\c2ccc(N(C)C)cc2)cc1 [Compound 61] | NA (inactive derivatives were placed in the nonactive group labeled “NA”) | 
COc1ccc(-c2ccc(/C=N/NC(=O)c3ccc([N+](=O)[O-])cc3)o2)cc1Cl [Compound 57] | Active | fold induction at 50 µM (J774.A1 macrophages; [2]): < 5
O=C(/C=C\c1ccco1)Oc1ccc(/C=N\NC(=O)c2ccc3c(c2)OCO3)cc1 [Compound 71] | NA (inactive derivatives were placed in the nonactive group labeled “NA”) | 
